Test system: Adenovirus, Poliovirus, Herpes Simplex Type 1 and Herpes Simplex Type 2, Coronavirus and Norovirus strains

With lutetium Borate [LuBO3] the antiviral efficacy was “exhibit antiviral efficacy”.

Reference: patent publication US20240307434A1, “USE OF LUTETIUM SALT COMPOUNDS FOR ANTIVIRAL EFFECT” (priority 2022, published 2024)
